Source: ChEMBL document CHEMBL3045230, “Synthesis and pharmacological evaluation of novel 4-isopropylthiazole-4-phenyl-1,2,4-triazole derivatives as potential antimicrobial and antitubercular agents” (Med Chem Res, 2013)
≈ marks a conversion by molar mass, not a printed value.

How the values were obtained:
Klebsiella pneumoniae = test: Antimicrobial activity against Klebsiella pneumoniae ATCC 10031 assessed as growth inhibition after 24 hr by broth dilution assay method; assay type: functional; conditions: ATCC 10031, 24 h
Bacillus subtilis = test: Antimicrobial activity against Bacillus subtilis ATCC 60511 assessed as growth inhibition after 24 hr by broth dilution assay method; assay type: functional; conditions: ATCC 60511, 24 h
Enterococcus faecalis = test: Antimicrobial activity against […] ATCC 14506 assessed as growth inhibition after 24 hr by broth dilution assay method; assay type: functional; conditions: ATCC 14506, 24 h
Staphylococcus aureus = test: Antimicrobial activity against Staphylococcus aureus ATCC 11632 assessed as growth inhibition after 24 hr by broth dilution assay method; assay type: functional; conditions: ATCC 11632, 24 h
[1] = tested on: Mycobacterium tuberculosis; test: Antitubercular activity against Mycobacterium tuberculosis H37Rv assessed as growth inhibition after 21 days by broth dilution assay method; assay type: functional; conditions: 504 h
Aspergillus niger = test: Antimicrobial activity against Aspergillus niger ATCC 6275 assessed as growth inhibition after 24 hr by broth dilution assay method; assay type: functional; conditions: ATCC 6275, 24 h
Candida tropicalis = test: Antimicrobial activity against Candida tropicalis ATCC 1369 assessed as growth inhibition after 24 hr by broth dilution assay method; assay type: functional; conditions: ATCC 1369, 24 h
Saccharomyces cerevisiae = test: Antimicrobial activity against Saccharomyces cerevisiae ATCC 9763 assessed as growth inhibition after 24 hr by broth dilution assay method; assay type: functional; conditions: ATCC 9763, 24 h
Pseudomonas aeruginosa = test: Antimicrobial activity against Pseudomonas aeruginosa ATCC 10145 assessed as growth inhibition after 24 hr by broth dilution assay method; assay type: functional; conditions: ATCC 10145, 24 h
Escherichia coli = test: Antimicrobial activity against Escherichia coli ATCC 10536 assessed as growth inhibition after 24 hr by broth dilution assay method; assay type: functional; conditions: ATCC 10536, 24 h
[2] = (§1) Cytotoxicity against Homo sapiens (human) A549 cells assessed as viable cells at 250 uM by MTT assay in presence of fetal bovine serum; assay type: cell-based; conditions: A549 cells, read-out: Activity
A549 = test: as §1; assay type: cell-based; conditions: a549, 250 µM

Row | SMILES | MIC (Klebsiella pneumoniae) [µg/mL] | MIC (Bacillus subtilis) [µg/mL] | MIC (Enterococcus faecalis) [µg/mL] | MIC (Staphylococcus aureus) [µg/mL] | MIC [1] [µg/mL] | MIC (Aspergillus niger) [µg/mL] | MIC (Candida tropicalis) [µg/mL] | MIC (Saccharomyces cerevisiae) [µg/mL] | MIC (Pseudomonas aeruginosa) [µg/mL] | MIC (Escherichia coli) [µg/mL] | viability at 250 µM [2] [%] | Activity (A549)
1 | C/C(=N\NC(=O)CSc1nnc(-c2nc(C(C)C)cs2)n1-c1ccccc1)c1ccc([N+](=O)[O-])cc1 | 31.2 (≈ 59.9 µM) | 125 (≈ 240 µM) | 31.2 (≈ 59.9 µM) | 31.2 (≈ 59.9 µM) | 62.5 (≈ 120 µM) | 125 (≈ 240 µM) | 31.2 (≈ 59.9 µM) | 125 (≈ 240 µM) | 62.5 (≈ 120 µM) | 62.5 (≈ 120 µM) |  | 
2 | COc1ccc(/C(C)=N/NC(=O)CSc2nnc(-c3nc(C(C)C)cs3)n2-c2ccccc2)cc1 | 250 (≈ 493 µM) | 62.5 (≈ 123 µM) | 31.2 (≈ 61.7 µM) | 31.2 (≈ 61.7 µM) | 8 (≈ 15.8 µM) | 125 (≈ 247 µM) | 125 (≈ 247 µM) | 62.5 (≈ 123 µM) | 62.5 (≈ 123 µM) | 125 (≈ 247 µM) |  | 
3 | C/C(=N\NC(=O)CSc1nnc(-c2nc(C(C)C)cs2)n1-c1ccccc1)c1ccc(O)cc1 | 31.2 (≈ 63.4 µM) | 62.5 (≈ 127 µM) | 31.2 (≈ 63.4 µM) | 62.5 (≈ 127 µM) | 16 (≈ 32.5 µM) | 8 (≈ 16.2 µM) | 8 (≈ 16.2 µM) | 31.2 (≈ 63.4 µM) | 16 (≈ 32.5 µM) | 16 (≈ 32.5 µM) | 50 | 
4 | C/C(=N\NC(=O)CSc1nnc(-c2nc(C(C)C)cs2)n1-c1ccccc1)c1ccc(C)cc1 | 16 (≈ 32.6 µM) | 31.2 (≈ 63.7 µM) | 62.5 (≈ 127 µM) | 125 (≈ 255 µM) | 62.5 (≈ 127 µM) | 31.2 (≈ 63.7 µM) | 125 (≈ 255 µM) | 62.5 (≈ 127 µM) | 62.5 (≈ 127 µM) | 125 (≈ 255 µM) |  | 
5 | C/C(=N\NC(=O)CSc1nnc(-c2nc(C(C)C)cs2)n1-c1ccccc1)c1ccc(Br)cc1 | 31.2 (≈ 56.3 µM) | 62.5 (≈ 113 µM) | 125 (≈ 225 µM) | 16 (≈ 28.8 µM) | 31.2 (≈ 56.3 µM) | 31.2 (≈ 56.3 µM) | 125 (≈ 225 µM) | 31.2 (≈ 56.3 µM) | 125 (≈ 225 µM) | 62.5 (≈ 113 µM) |  | 
6 | C/C(=N\NC(=O)CSc1nnc(-c2nc(C(C)C)cs2)n1-c1ccccc1)c1ccc(Cl)cc1 | 62.5 (≈ 122 µM) | 125 (≈ 245 µM) | 31.2 (≈ 61.1 µM) | 31.2 (≈ 61.1 µM) | 31.2 (≈ 61.1 µM) | 125 (≈ 245 µM) | 31.2 (≈ 61.1 µM) | 31.2 (≈ 61.1 µM) | 31.2 (≈ 61.1 µM) | 16 (≈ 31.3 µM) |  | 
7 | CC(C)c1csc(-c2nnc(SCc3nnc(-c4ccccc4)o3)n2-c2ccccc2)n1 | 62.5 (≈ 136 µM) | 31.2 (≈ 67.8 µM) | 31.2 (≈ 67.8 µM) | 31.2 (≈ 67.8 µM) |  | 31.2 (≈ 67.8 µM) | 16 (≈ 34.7 µM) | 16 (≈ 34.7 µM) | 31.2 (≈ 67.8 µM) | 125 (≈ 271 µM) |  | 
8 | CC(C)c1csc(-c2nnc(SCc3nnc(CCl)o3)n2-c2ccccc2)n1 | 31.2 (≈ 72.2 µM) | 31.2 (≈ 72.2 µM) | 16 (≈ 37 µM) | 8 (≈ 18.5 µM) |  | 31.2 (≈ 72.2 µM) | 125 (≈ 289 µM) | 62.5 (≈ 144 µM) | 16 (≈ 37 µM) | 16 (≈ 37 µM) |  | 
9 | CC(C)c1csc(-c2nnc(SCc3nnc(-c4ccc(Cl)cc4)o3)n2-c2ccccc2)n1 | 62.5 (≈ 126 µM) | 4 (≈ 8.08 µM) | 8 (≈ 16.2 µM) | 8 (≈ 16.2 µM) |  | 125 (≈ 253 µM) | 125 (≈ 253 µM) | 62.5 (≈ 126 µM) | 62.5 (≈ 126 µM) | 62.5 (≈ 126 µM) | 50 | 
10 | CC(C)c1csc(-c2nnc(SCc3nnc(-c4ccc([N+](=O)[O-])cc4)o3)n2-c2ccccc2)n1 | 31.2 (≈ 61.8 µM) | 62.5 (≈ 124 µM) | 31.2 (≈ 61.8 µM) | 31.2 (≈ 61.8 µM) |  | 62.5 (≈ 124 µM) | 31.2 (≈ 61.8 µM) | 62.5 (≈ 124 µM) | 31.2 (≈ 61.8 µM) | 62.5 (≈ 124 µM) |  | 
11 | Cc1ccc(-c2nnc(CSc3nnc(-c4nc(C(C)C)cs4)n3-c3ccccc3)o2)cc1 | 62.5 (≈ 132 µM) | 125 (≈ 263 µM) | 31.2 (≈ 65.8 µM) | 62.5 (≈ 132 µM) |  | 125 (≈ 263 µM) | 31.2 (≈ 65.8 µM) | 125 (≈ 263 µM) | 62.5 (≈ 132 µM) | 31.2 (≈ 65.8 µM) |  | 
12 | CC(C)c1csc(-c2nnc(SCc3nnc(-c4ccc(O)cc4)o3)n2-c2ccccc2)n1 | 125 (≈ 262 µM) | 31.2 (≈ 65.6 µM) | 62.5 (≈ 131 µM) | 31.2 (≈ 65.6 µM) |  | 31.2 (≈ 65.6 µM) | 31.2 (≈ 65.6 µM) | 31.2 (≈ 65.6 µM) | 31.2 (≈ 65.6 µM) | 62.5 (≈ 131 µM) |  | 
13 | CC(=O)NNC(=O)CSc1nnc(-c2nc(C(C)C)cs2)n1-c1ccccc1 | 31.2 (≈ 75 µM) | 62.5 (≈ 150 µM) | 125 (≈ 300 µM) | 125 (≈ 300 µM) | 62.5 (≈ 150 µM) | 8 (≈ 19.2 µM) | 8 (≈ 19.2 µM) | 16 (≈ 38.4 µM) | 125 (≈ 300 µM) | 62.5 (≈ 150 µM) |  | 
14 | CCOC(=O)CSc1nnc(-c2nc(C(C)C)cs2)n1-c1ccccc1 | 125 (≈ 322 µM) | 62.5 (≈ 161 µM) | 125 (≈ 322 µM) | 125 (≈ 322 µM) | 125 (≈ 322 µM) | 62.5 (≈ 161 µM) | 125 (≈ 322 µM) | 62.5 (≈ 161 µM) | 62.5 (≈ 161 µM) | 125 (≈ 322 µM) |  | 
15 | CC(C)c1csc(-c2nnc(SCC(=O)NN)n2-c2ccccc2)n1 | 8 (≈ 21.4 µM) | 31.2 (≈ 83.4 µM) | 31.2 (≈ 83.4 µM) | 16 (≈ 42.7 µM) | 16 (≈ 42.7 µM) | 31.2 (≈ 83.4 µM) | 31.2 (≈ 83.4 µM) | 62.5 (≈ 167 µM) | 8 (≈ 21.4 µM) | 8 (≈ 21.4 µM) | 50 | 
16 | COc1ccc(/C=N/NC(=O)CSc2nnc(-c3nc(C(C)C)cs3)n2-c2ccccc2)cc1OC | 16 (≈ 30.6 µM) | 8 (≈ 15.3 µM) | 12 (≈ 23 µM) | 8 (≈ 15.3 µM) | 8 (≈ 15.3 µM) | 16 (≈ 30.6 µM) | 31.2 (≈ 59.8 µM) | 16 (≈ 30.6 µM) | 31.2 (≈ 59.8 µM) | 16 (≈ 30.6 µM) |  | 
17 | CC(C)c1csc(-c2nnc(SCC(=O)N/N=C/c3ccc(Cl)cc3)n2-c2ccccc2)n1 | 62.5 (≈ 126 µM) | 31.2 (≈ 62.9 µM) | 31.2 (≈ 62.9 µM) | 62.5 (≈ 126 µM) | 125 (≈ 251 µM) | 31.2 (≈ 62.9 µM) | 31.2 (≈ 62.9 µM) | 16 (≈ 32.2 µM) | 62.5 (≈ 126 µM) | 31.2 (≈ 62.9 µM) |  | 
18 | CC(C)c1csc(-c2nnc(SCC(=O)N/N=C/c3ccc(O)cc3)n2-c2ccccc2)n1 | 16 (≈ 33.4 µM) | 125 (≈ 261 µM) | 16 (≈ 33.4 µM) | 125 (≈ 261 µM) | 8 (≈ 16.7 µM) | 31.2 (≈ 65.3 µM) | 62.5 (≈ 131 µM) |  | 62.5 (≈ 131 µM) | 125 (≈ 261 µM) |  | Toxic
19 | COc1cc(/C=N/NC(=O)CSc2nnc(-c3nc(C(C)C)cs3)n2-c2ccccc2)ccc1O | 8 (≈ 15.7 µM) | 16 (≈ 31.5 µM) | 125 (≈ 246 µM) | 125 (≈ 246 µM) | 31.2 (≈ 61.4 µM) | 31.2 (≈ 61.4 µM) | 62.5 (≈ 123 µM) | 16 (≈ 31.5 µM) | 16 (≈ 31.5 µM) | 8 (≈ 15.7 µM) |  | 
20 | CC(C)c1csc(-c2nnc(SCC(=O)N/N=C/c3cccc([N+](=O)[O-])c3)n2-c2ccccc2)n1 | 16 (≈ 31.5 µM) | 31.2 (≈ 61.6 µM) | 31.2 (≈ 61.6 µM) | 125 (≈ 246 µM) | 62.5 (≈ 123 µM) | 125 (≈ 246 µM) | 31.2 (≈ 61.6 µM) | 62.5 (≈ 123 µM) | 62.5 (≈ 123 µM) | 31.2 (≈ 61.6 µM) |  | 
21 | O=C(O)c1cn(C2CC2)c2cc(N3CCNCC3)c(F)cc2c1=O [CIPROFLOXACIN] | ≤ 1 | ≤ 1 | ≤ 5 | ≤ 5 |  |  |  |  | ≤ 5 | ≤ 1 |  | 
22 | OC(Cn1cncn1)(Cn1cncn1)c1ccc(F)cc1F [FLUCONAZOLE] |  |  |  |  |  | ≤ 1 | ≤ 1 | ≤ 1 |  |  |  | 
23 | NNC(=O)c1ccncc1 [ISONIAZID] |  |  |  |  | 0.25 (≈ 1.82 µM) |  |  |  |  |  |  | 
24 | CCn1cc(C(=O)O)c(=O)c2cc(F)c(N3CCNCC3)cc21 [NORFLOXACIN] | ≤ 1 | ≤ 1 | ≤ 5 | ≤ 5 |  |  |  |  | ≤ 5 | ≤ 1 |  | 
